Data on 18 molecules can be found in patent US20260085062A1, “NOVEL COMPOUNDS AS CK2 INHIBITORS” (Cambridge Enterprise Limited, priority 2022, published 2026).

A value given as a limit tells only on which side of the number the result lay.

One test addresses T1, CK2α (Homo sapiens, UniProt P68400).
T1 construct: CK2α (residues 2-329) was produced in Escherichia coli BL21 (DE3) for kinase activity screening; His6 (N, cleaved yes); made in house; host or cells: Escherichia coli BL21 (DE3)
T1 sequence (P68400 2-329): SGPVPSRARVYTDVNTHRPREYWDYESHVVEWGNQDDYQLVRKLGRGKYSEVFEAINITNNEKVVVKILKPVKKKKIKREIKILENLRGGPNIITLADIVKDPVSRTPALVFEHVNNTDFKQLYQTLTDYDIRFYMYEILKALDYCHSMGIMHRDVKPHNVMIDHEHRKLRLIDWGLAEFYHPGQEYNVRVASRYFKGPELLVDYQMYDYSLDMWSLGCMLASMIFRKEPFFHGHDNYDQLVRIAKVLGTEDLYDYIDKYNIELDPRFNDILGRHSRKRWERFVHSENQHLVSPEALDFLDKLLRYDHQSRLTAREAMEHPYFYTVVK
Nature of the test: Biochemical assay for inhibitors of CK2α kinase activity (ADP-Glo). The following applies: 0.2 nM CK2α, 50 μM peptide substrate, 15 μM ATP, read-out: Assay 1: CK2α Enzyme IC50. In general terms: ADP-Glo turns the ADP formed in a reaction into a luminescent signal.

The target of a further test is T2, intracellular CK2α (Homo sapiens, UniProt P19784).
T2 construct: host or cells: HCT116 (ATCC CCL-247)
Nature of the test: Cell-based NanoBRET assay for inhibitor binding to intracellular CK2α. As to conditions: HCT116 cells transiently transfected with CSNK2A2-NanoLuc fusion vector; Tracer K-5; 2 h; read-out: Assay 3: NanoBRET ™ assay for binding to intracellular CK2α. In outline: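 Living cells expressing NanoLuc-CK2α fusion were given a fixed tracer concentration, and compounds competitively displaced the reversibly bound tracer. Donor (450 nm) and acceptor (610 or 630 nm) emissions were read; BRET ratio = (acceptor/donor)×1,000, giving apparent intracellular affinity.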
For orientation: Bioluminescence resonance energy transfer reports proximity on the nanometre scale.

A further test concerns the target T3, CLK2 (Homo sapiens, UniProt P49760).
T3 construct: purchased Carna Biosciences 04-127
Put plainly: Biochemical assay for inhibitors of CLK2 kinase activity (ADP-Glo). The following applies: 20 nM CLK2, 50 μM peptide substrate, 100 μM ATP, read-out: Assay 2: CLK2 Enzyme IC50.

T3 sequence (P49760 whole entry): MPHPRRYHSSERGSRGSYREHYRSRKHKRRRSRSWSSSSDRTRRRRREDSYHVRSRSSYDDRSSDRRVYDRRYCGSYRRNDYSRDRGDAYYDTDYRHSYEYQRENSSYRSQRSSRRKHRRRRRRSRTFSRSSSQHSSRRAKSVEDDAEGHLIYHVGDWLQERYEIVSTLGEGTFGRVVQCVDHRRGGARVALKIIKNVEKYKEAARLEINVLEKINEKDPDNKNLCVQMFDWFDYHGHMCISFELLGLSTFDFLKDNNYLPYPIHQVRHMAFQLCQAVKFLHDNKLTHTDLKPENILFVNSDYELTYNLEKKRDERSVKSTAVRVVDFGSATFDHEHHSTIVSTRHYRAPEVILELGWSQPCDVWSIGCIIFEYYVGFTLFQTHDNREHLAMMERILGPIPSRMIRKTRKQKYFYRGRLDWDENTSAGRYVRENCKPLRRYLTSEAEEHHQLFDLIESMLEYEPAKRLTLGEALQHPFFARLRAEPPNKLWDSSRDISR
T2 sequence (P19784 whole entry): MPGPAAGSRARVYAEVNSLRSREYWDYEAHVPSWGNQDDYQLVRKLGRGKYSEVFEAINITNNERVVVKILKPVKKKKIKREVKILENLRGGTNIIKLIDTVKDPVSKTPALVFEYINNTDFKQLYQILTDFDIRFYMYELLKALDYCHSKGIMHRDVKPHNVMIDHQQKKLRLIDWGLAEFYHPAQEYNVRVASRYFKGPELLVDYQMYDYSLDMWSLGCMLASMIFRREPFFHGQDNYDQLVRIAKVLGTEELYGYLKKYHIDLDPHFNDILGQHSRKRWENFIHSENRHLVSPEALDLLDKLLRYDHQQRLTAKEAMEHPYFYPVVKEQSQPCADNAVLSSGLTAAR

As to `FC(F)(F)Oc1ccc(CNCCCOCCCOc2cc(-n3cnnc3)cc3[nH]ncc23)cc1Cl` [Example 69, 3-(3-((6-(4H-1,2,4-triazol-4-yl)-1H-indazol-4-yl)oxy)propoxy)-N-(3-chloro-4-(trifluoromethoxy)benzyl)propan-1-amine], the IC50 at CK2α turned out to be 46.6 nM; on intracellular CK2α, 2850 nM; on CLK2, 688 nM.
In the same order, the values of `O=C(CCOCCCNCc1ccc(OC(F)(F)F)c(Cl)c1)Nc1cc(-n2cnnc2)cc2[nH]ncc12` [Example 70, N-(6-(4H-1,2,4-triazol-4-yl)-1H-indazol-4-yl)-3-(3-((3-chloro-4-(trifluoromethoxy)benzyl)amino)propoxy)propanamide] are 256 nM, over 50000 nM and 1520 nM.
For the molecule `Cc1nncn1-c1cc(NCCCNC(=O)CCNCc2ccc(-c3ccccc3)c(Cl)c2)c2cn[nH]c2c1` [Example 71, 3-(((2-chloro-[1,1′-biphenyl]-4-yl)methyl)amino)-N-(3-((6-(3-methyl-4H-1,2,4-triazol-4-yl)-1H-indazol-4-yl)amino)propyl)propanamide], the values for the IC50 on CK2α, on intracellular CK2α and at CLK2 were 1.37 nM, 2160 nM and 416 nM, respectively.
For `CN(CCCCNCc1ccc(OC(F)(F)F)c(Cl)c1)CCNc1cc(-n2cnnc2)cc2[nH]ncc12` [Example 72, N1-(2-((6-(4H-1,2,4-triazol-4-yl)-1H-indazol-4-yl)amino)ethyl)-N4-(3-chloro-4-(trifluoromethoxy)benzyl)-N1-methylbutane-1,4-diamine], the IC50 was determined as 0.7 nM at CK2α, 294 nM at intracellular CK2α and 431 nM on CLK2.
In the same order, the values of `O=C(CCNCc1ccc(-c2ccccc2)c(Cl)c1)NCCCNc1cc(-c2cncnc2)cc2[nH]ncc12` [Example 73, 3-(((2-chloro-[1,1′-biphenyl]-4-yl)methyl)amino)-N-(3-((6-(pyrimidin-5-yl)-1H-indazol-4-yl)amino)propyl)propanamide] are 44.3 nM, 743 nM and 1960 nM.
The like results for `N#Cc1cc(-c2cc(NCCCNC(=O)CCNCc3ccc(-c4ccccc4)c(Cl)c3)c3cn[nH]c3c2)ccn1` [Example 74, 3-(((2-chloro-[1,1′-biphenyl]-4-yl)methyl)amino)-N-(3-((6-(2-cyanopyridin-4-yl)-1H-indazol-4-yl)amino)propyl)propanamide] were, in that order, 19.7 nM, 2130 nM and 10000 nM.
The like results for `O=C(CCNCc1ccc(-c2ccccc2)c(Cl)c1)NCCCNc1cc(-c2ccncn2)cc2[nH]ncc12` [Example 75, 3-(((2-chloro-[1,1′-biphenyl]-4-yl)methyl)amino)-N-(3-((6-(pyrimidin-4-yl)-1H-indazol-4-yl)amino)propyl)propanamide] were, in that order, 0.89 nM, 76.5 nM and 404 nM.
`COc1n[nH]cc1-c1cc(NCCCNC(=O)CCNCc2ccc(-c3ccccc3)c(Cl)c2)c2cn[nH]c2c1` [Example 76, 3-(((2-chloro-[1,1′-biphenyl]-4-yl)methyl)amino)-N-(3-((6-(3-methoxy-1H-pyrazol-4-yl)-1H-indazol-4-yl)amino)propyl)propanamide]: the IC50 at CK2α was determined as 2.64 nM; at intracellular CK2α it was 735 nM; at CLK2 it was 18.6 nM.
As to `O=C(CCNCc1ccc(C2CC2)c(CO)c1)NCCCNc1cc(-n2cnnc2)cc2[nH]ncc12` [Example 77, N-(3-((6-(4H-1,2,4-triazol-4-yl)-1H-indazol-4-yl)amino)propyl)-3-((4-cyclopropyl-3-(hydroxymethyl)benzyl)amino)propanamide], the IC50 is 5.71 nM on CK2α, over 50000 nM on intracellular CK2α and 95.7 nM on CLK2.
The like results for `O=C(CCNCc1ccc(-c2ccccc2)c(Cl)c1)NCCCNc1cc(N2CCOCC2)cc2[nH]ncc12` [Example 78, 3-(((2-chloro-[1,1′-biphenyl]-4-yl)methyl)amino)-N-(3-((6-morpholino-1H-indazol-4-yl)amino)propyl)propanamide] were, in that order, 472 nM, over 50000 nM and over 50000 nM.
In the case of `O=C(CCNCc1ccc(-c2ccccc2)c(Cl)c1)NCCCNc1cc(-c2nn[nH]n2)cc2[nH]ncc12` [Example 79, N-(3-((6-(2H-tetrazol-5-yl)-1H-indazol-4-yl)amino)propyl)-3-(((2-chloro-[1,1′-biphenyl]-4-yl)methyl)amino)propanamide], the IC50 is 0.33 nM on CK2α, 5090 nM at intracellular CK2α and 407 nM on CLK2.
As for `Cc1nccn1-c1cc(NCCCNC(=O)CCNCc2ccc(-c3ccccc3)c(Cl)c2)c2cn[nH]c2c1` [Example 80, 3-(((2-chloro-[1,1′-biphenyl]-4-yl)methyl)amino)-N-(3-((6-(2-methyl-1H-imidazol-1-yl)-1H-indazol-4-yl)amino)propyl)propanamide], the IC50 on CK2α turned out to be 46.7 nM; on intracellular CK2α, 8050 nM; at CLK2 it was 1920 nM.
As to `O=C(CCNCc1ccc(-c2ccccc2)c(Cl)c1)NCCCNc1cc(C2COC2)cc2[nH]ncc12` [Example 81, 3-(((2-chloro-[1,1′-biphenyl]-4-yl)methyl)amino)-N-(3-((6-(oxetan-3-yl)-1H-indazol-4-yl)amino)propyl)propanamide], the IC50 at CK2α was determined as 7.49 nM; on intracellular CK2α it was 808 nM; at CLK2, 684 nM.
Take `O=C(CCNCc1ccc(-c2ccccc2)c(Cl)c1)NCCCNc1cc(C2CCOC2)cc2[nH]ncc12` (stereo not drawn) [Example 82, 3-(((2-chloro-[1,1′-biphenyl]-4-yl)methyl)amino)-N-(3-((6-(tetrahydrofuran-3-yl)-1H-indazol-4-yl)amino)propyl)propanamide]: the IC50 at CK2α was 23.3 nM; at intracellular CK2α, 2120 nM; at CLK2, 1870 nM.
In the same order, the values of `O=C(CCNCc1ccc(OC(F)(F)F)c(Cl)c1)NCCCNc1cc(-n2cnnc2)cc2cn[nH]c12` [Example 83, N-(3-((5-(4H-1,2,4-triazol-4-yl)-1H-indazol-7-yl)amino)propyl)-3-((3-chloro-4-(trifluoromethoxy)benzyl)amino)propanamide] are 2.56 nM, 2260 nM and 1090 nM.
The like results for `COC(=O)c1cc(NCCOCCCCNCc2cc3cc(C(F)(F)F)ccc3[nH]2)c2cn[nH]c2c1` [Example 84, methyl4-((2-(4-(((5-(trifluoromethyl)-1H-indol-2-yl)methyl)amino)butoxy)ethyl)amino)-1H-indazole-6-carboxylate] were, in that order, 395 nM, 36500 nM and 10500 nM.
With `O=C(O)c1cc(NCCOCCCCNCc2cc3cc(C(F)(F)F)ccc3[nH]2)c2cn[nH]c2c1` [Example 85, 4-((2-(4-(((5-(trifluoromethyl)-1H-indol-2-yl)methyl)amino)butoxy)ethyl)amino)-1H-indazole-6-carboxylic acid], the results for the IC50 at CK2α, on intracellular CK2α and at CLK2 were 743 nM, over 50000 nM and 37100 nM, respectively.
In the same order, the values of `Cc1nncn1-c1cc(NCCOCCCCNCc2cc3cc(C(F)(F)F)ccc3[nH]2)c2cn[nH]c2c1` [Example 86, 6-(3-methyl-4H-1,2,4-triazol-4-yl)-N-(2-(4-(((5-(trifluoromethyl)-1H-indol-2-yl)methyl)amino)butoxy)ethyl)-1H-indazol-4-amine] are 6.36 nM, 1350 nM and 1670 nM.
